In PMC6234229, “The role of loops B and C in determining the potentiation of GABAA receptors by midazolam” (Pharmacology Research & Perspectives, 2018):

Key:
Assay in all cases: Midazolam potentiation of EC10 GABA currents, whole-cell patch clamp, HEK293T
Assay type in all cases: cell-based
[1] = molecular target: T1, α2(H101R)β2γ2 GABAA receptor (Homo sapiens, UniProt P18507+P47869+P47870, H129R); conditions: for Midazolam potentiation (%): α2(H101R)
T1 construct: expressed in transfected cells; host or cells: HEK293T
From the text: (§1) Human (Homo sapiens) GABAA subunits (α1‐6, β2, γ2s) were subcloned into pcDNA3.1+ vectors with a cytomegalovirus (CMV) promoter. The hβ2 and hα3 sequences were humanized rat (Rattus norvegicus) cDNA with amino acid substitutions made to match the human protein sequence. The α1‐3, α5, β2, and γ2s subunits were a generous gift from Neil L. Harrison (Columbia University Medical Center, NY). The α4 subunit was obtained from GenScript (Piscataway, NJ), and the α6 subunit was a generous gift from Robert L. McDonald (Vanderbilt University, TN). All point mutations (listed in Figure 1C) were introduced using the QuikChange Lightening site‐directed mutagenesis kit (Agilent Technologies, Santa Clara, CA) according to the manufacturer's instructions and were confirmed by sequencing (Eurofins MWG Operon, Louisville, KY).
(§2) Human embryonic kidney cells containing the SV40 T‐antigen (HEK293T) were acquired from American Type Culture Collection (ATCC®, Manassas, VA), catalogue number, CRL3216. HEK293T cells were maintained at 37°C and 5% CO2 in Eagle Minimum Essential Medium (MEM) supplemented with 5% fetal bovine serum (Atlanta Biologicals Inc., Flowery Branch, GA), 40 μM L‐glutamine, 100 U/mL penicillin and 0.1 mM streptomycin. Cells were passaged regularly when they reached 70% confluency using trypsin. Cells were not passaged more than 22 times. New cells were revived from frozen stocks at passage 2‐4. Cells used for in vitro electrophysiology experiments were grown on poly‐D‐lysine‐coated glass coverslips (No.2, VWR, Radnor, PA) and transfected with X‐tremeGENE (Roche Diagnostics, Indianapolis, IN) with the desired receptor subunit cDNAs at a 1:1:1 ratio to express αxβ2γ2s receptors (2 μg total cDNA) and with 0.5 μg green fluorescent protein (GFP) as an expression marker. The γ2s incorporation into receptors was tested with zinc inhibition assays regularly.24 Patch clamp experiments were performed on cells at 24‐72 hours post‐transfection. All experiments were performed at 22°C. Experiments consisted of at least five cells recorded per day from at least two transfections across 3‐4 days to control for cell health and transfection efficiency. At least three cells expressing wild‐type receptors were recorded on days that mutant receptors were tested to provide a time‐matched expression control. All reagents were purchased from Sigma‐Aldrich (St. Louis, MO) unless otherwise stated.
(§3) Extracellular solution contained 161 mM NaCl, 3 mM KCl, 1 mM MgCl2, 1.5 mM CaCl2, 10 mM HEPES, and 6 mM D‐glucose, adjusted to pH 7.4 with NaOH (320‐330 mOsm). […] The perfusion system was controlled by protocols written in pClamp 9 (Molecular Devices, LLC., Sunnyvale, CA). Whole‐cell currents were recorded at ‐60 mV, filtered at 100 Hz and sampled at 200 Hz with a MultiClamp 700B amplifier (Molecular Devices, LLC) and DigiData 1322A (Molecular Devices, LLC) digitizer. […] Cells were recorded with the midazolam protocol no more than two times to avoid desensitization and incomplete washout or irreversible modulation.
(§4) Recordings were analyzed using MATLAB (Math Works, Inc., Natick, MA). […] The maximum peak current, EC50 and Hill coefficient were estimated for assays from each cell. When Hill parameters are estimated from whole‐cell recordings, the changes in the parameters across receptor conditions can be ascribed to the following changes in receptor physiology. Changes in maximum current can be due to changes in the single‐channel conductance or the rate of desensitization. Changes in cell surface receptor expression can cause minor changes in maximum current, but are unlikely to occur in the time course of our experimental protocol. […] More often minor changes in the Hill coefficient are attributed to the altered homogeneity in the receptor population expressed by the HEK293T cell. For example, a shallower Hill coefficient could be caused by a shift in the population of receptors from mostly αβγ receptors to a combination of both αβ and αβγ receptors.

[2] = molecular target: T2, α2(S205I)β2γ2 GABAA receptor (Homo sapiens, UniProt P18507+P47869+P47870, S233I)
T2 construct: expressed in transfected cells; host or cells: HEK293T
From the text: as §1, §2, §3, §4

[3] = molecular target: T3, α3β2γ2 GABAA receptor (Homo sapiens, UniProt P18507+P34903+P47870)
T3 construct: expressed in transfected cells; host or cells: HEK293T
T3 sequence (P34903 29-492): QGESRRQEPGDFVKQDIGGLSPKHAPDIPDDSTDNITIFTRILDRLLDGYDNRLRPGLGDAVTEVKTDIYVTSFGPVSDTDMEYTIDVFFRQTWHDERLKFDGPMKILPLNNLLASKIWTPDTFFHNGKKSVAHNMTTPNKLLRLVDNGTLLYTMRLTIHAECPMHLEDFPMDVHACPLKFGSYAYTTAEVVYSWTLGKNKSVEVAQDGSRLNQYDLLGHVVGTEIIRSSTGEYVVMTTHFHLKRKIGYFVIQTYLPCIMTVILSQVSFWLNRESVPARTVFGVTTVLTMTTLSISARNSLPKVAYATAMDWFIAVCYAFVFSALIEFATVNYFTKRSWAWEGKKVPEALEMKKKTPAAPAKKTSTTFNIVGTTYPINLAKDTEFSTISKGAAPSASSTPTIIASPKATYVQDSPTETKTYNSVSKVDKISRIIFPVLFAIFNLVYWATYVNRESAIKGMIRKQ
T3 sequence (P47870 25-512 limits assumed): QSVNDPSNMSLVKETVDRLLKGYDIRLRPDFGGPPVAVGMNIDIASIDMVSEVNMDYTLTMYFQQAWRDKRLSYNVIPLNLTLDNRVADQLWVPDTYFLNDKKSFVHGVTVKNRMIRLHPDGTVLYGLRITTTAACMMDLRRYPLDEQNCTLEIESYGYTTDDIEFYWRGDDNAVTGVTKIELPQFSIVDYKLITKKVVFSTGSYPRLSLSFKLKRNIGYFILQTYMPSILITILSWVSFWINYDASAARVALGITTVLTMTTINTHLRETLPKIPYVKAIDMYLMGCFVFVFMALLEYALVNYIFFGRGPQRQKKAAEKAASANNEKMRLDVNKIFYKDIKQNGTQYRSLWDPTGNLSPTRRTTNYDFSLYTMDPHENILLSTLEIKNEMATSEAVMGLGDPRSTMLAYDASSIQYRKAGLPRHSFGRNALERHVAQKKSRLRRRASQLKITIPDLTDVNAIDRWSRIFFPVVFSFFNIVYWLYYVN
T3 sequence (P18507 40-467 isoform P18507-1 limits assumed): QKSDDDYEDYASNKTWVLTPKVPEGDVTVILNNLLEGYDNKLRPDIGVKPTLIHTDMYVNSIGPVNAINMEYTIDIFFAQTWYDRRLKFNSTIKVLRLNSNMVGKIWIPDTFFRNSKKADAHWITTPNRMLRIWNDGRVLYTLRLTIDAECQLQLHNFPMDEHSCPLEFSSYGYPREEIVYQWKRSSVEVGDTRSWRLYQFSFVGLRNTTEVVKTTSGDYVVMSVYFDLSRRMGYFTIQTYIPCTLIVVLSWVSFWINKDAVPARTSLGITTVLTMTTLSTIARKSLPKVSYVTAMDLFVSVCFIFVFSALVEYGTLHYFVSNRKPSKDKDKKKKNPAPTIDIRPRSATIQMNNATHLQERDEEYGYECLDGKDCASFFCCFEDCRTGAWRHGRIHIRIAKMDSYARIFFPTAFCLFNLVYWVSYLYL
From the text: as §1, §2, §3, §4

[4] = molecular target: T4, α4(I204S)β2γ2 GABAA receptor (Homo sapiens, UniProt P18507+P47870+P48169, I239S)
T4 construct: expressed in transfected cells; host or cells: HEK293T
T4 sequence (P48169 36-554 I239S): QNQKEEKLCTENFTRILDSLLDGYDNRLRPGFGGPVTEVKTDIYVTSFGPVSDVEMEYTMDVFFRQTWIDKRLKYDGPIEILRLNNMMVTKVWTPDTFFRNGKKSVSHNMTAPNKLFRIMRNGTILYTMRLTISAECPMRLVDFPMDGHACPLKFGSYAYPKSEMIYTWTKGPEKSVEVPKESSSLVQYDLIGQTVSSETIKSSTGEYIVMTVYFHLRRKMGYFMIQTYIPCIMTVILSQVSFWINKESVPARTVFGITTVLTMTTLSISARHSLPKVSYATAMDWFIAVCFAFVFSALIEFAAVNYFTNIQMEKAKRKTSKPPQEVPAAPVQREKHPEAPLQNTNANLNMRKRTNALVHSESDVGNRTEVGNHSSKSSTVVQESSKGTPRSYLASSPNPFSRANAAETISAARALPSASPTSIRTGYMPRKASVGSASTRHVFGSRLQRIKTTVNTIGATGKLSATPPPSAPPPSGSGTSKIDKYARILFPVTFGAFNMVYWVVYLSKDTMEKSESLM
T4 sequence (P47870 26-474 isoform P47870-1 limits assumed, stated change not applied): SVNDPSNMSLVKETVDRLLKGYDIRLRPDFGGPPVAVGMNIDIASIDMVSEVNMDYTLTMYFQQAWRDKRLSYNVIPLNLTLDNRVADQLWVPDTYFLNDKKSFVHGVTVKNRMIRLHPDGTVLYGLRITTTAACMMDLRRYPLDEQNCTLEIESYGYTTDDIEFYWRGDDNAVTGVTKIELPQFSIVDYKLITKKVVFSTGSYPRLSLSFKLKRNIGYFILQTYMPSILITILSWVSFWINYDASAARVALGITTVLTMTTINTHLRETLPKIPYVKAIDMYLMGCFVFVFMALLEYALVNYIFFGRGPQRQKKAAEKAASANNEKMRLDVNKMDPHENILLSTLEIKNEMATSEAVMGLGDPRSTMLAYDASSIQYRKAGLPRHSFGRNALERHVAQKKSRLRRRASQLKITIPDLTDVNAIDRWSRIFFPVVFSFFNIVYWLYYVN
T4 sequence (P18507 40-467 isoform P18507-1 limits assumed, stated change not applied): as the sequence (P18507 40-467 isoform P18507-1 limits assumed) above
From the text: as §1, §2, §3, §4

[5] = molecular target: T5, α4(R100H)β2γ2 GABAA receptor (Homo sapiens, UniProt P18507+P47870+P48169, R135H)
T5 construct: expressed in transfected cells; host or cells: HEK293T
T5 sequence (P48169 36-554 R135H): as the sequence (P48169 36-554 I239S) above, with R100H, S204I counted along it
T5 sequence (P47870 26-474 isoform P47870-1 limits assumed, stated change not applied): as the sequence (P47870 26-474 isoform P47870-1 limits assumed, stated change not applied) above
T5 sequence (P18507 40-467 isoform P18507-1 limits assumed, stated change not applied): as the sequence (P18507 40-467 isoform P18507-1 limits assumed) above
From the text: as §1, §2, §3, §4

[6] = molecular target: T6, α5(S209I)β2γ2 GABAA receptor (Homo sapiens, UniProt P18507+P31644+P47870, S240I)
T6 construct: expressed in transfected cells; host or cells: HEK293T
From the text: as §1, §2, §3, §4

[7] = molecular target: T7, α6(N204I)β2γ2 GABAA receptor (Homo sapiens, UniProt P18507+P47870+Q16445, N223I)
T7 construct: expressed in transfected cells; host or cells: HEK293T
From the text: as §1, §2, §3, §4

Cc1ncc2n1-c1ccc(Cl)cc1C(c1ccccc1F)=NC2 [midazolam]
Midazolam potentiation (%) ([1]; 10 nM MDZ + EC10 GABA): 9.85 ± 5.77%
Midazolam potentiation (%) ([1]; 50 nM MDZ + EC10 GABA): 21.72 ± 8.75%
Midazolam potentiation (%) ([1]; 100 nM MDZ + EC10 GABA): 25.17 ± 9.58%
Midazolam potentiation (%) ([1]; 500 nM MDZ + EC10 GABA): 30.08 ± 10.31%
Midazolam potentiation (%) ([1]; 1000 nM MDZ + EC10 GABA): 31.81 ± 11.79%
responsiveness to midazolam potentiation ([1]; printed α2(H102R)): abolished the ability of receptors to respond to midazolam potentiation
EC50 [2]: 41.7 ± 4.99 nM
Midazolam potentiation (%) ([2]; 10 nM MDZ + EC10 GABA, α2(S205I)): 21.06 ± 6.24%
Midazolam potentiation (%) ([2]; 50 nM MDZ + EC10 GABA, α2(S205I)): 54.26 ± 10.25%
Midazolam potentiation (%) ([2]; 100 nM MDZ + EC10 GABA, α2(S205I)): 86.20 ± 14.74%
Midazolam potentiation (%) ([2]; 500 nM MDZ + EC10 GABA, α2(S205I)): 102.63 ± 19.49%
Midazolam potentiation (%) ([2]; 1000 nM MDZ + EC10 GABA, α2(S205I)): 97.62 ± 20.12%
Max potentiation (%) ([2]; α2(S205I), Hill fit, midazolam 10-1000 nM + EC10 GABA): 116.4 ± 23.0%
Hill coefficient ([2]; α2(S205I), midazolam Hill fit): 1.362 ± 0.140
Midazolam potentiation (%) ([3]; 10 nM MDZ + EC10 GABA): 37.98 ± 5.40%
Midazolam potentiation (%) ([3]; 50 nM MDZ + EC10 GABA): 132.92 ± 12.09%
Midazolam potentiation (%) ([3]; 100 nM MDZ + EC10 GABA): 221.10 ± 19.12%
Midazolam potentiation (%) ([3]; 500 nM MDZ + EC10 GABA): 279.18 ± 24.71%
Midazolam potentiation (%) ([3]; 1000 nM MDZ + EC10 GABA): 281.17 ± 24.73%
EC50 ([3]; EC50 (nM), midazolam potentiation of EC10 GABA): 46.4 nM
Max potentiation (%) ([3]; Hill fit, midazolam 10-1000 nM + EC10 GABA): 267.8 ± 20.3%
Hill coefficient ([3]; midazolam Hill fit): 1.503 ± 0.117
responsiveness to midazolam potentiation [4]: failed to convey any notable midazolam potentiation
Midazolam potentiation (%) ([4]; 10 nM MDZ + EC10 GABA): 9.47 ± 1.93%
Midazolam potentiation (%) ([4]; 50 nM MDZ + EC10 GABA): 13.23 ± 1.68%
Midazolam potentiation (%) ([4]; 100 nM MDZ + EC10 GABA): 16.59 ± 1.59%
Midazolam potentiation (%) ([4]; 500 nM MDZ + EC10 GABA): 20.16 ± 2.01%
Midazolam potentiation (%) ([4]; 1000 nM MDZ + EC10 GABA): 23.95 ± 2.33%
EC50 [5]: 74 ± 3.44 nM
Midazolam potentiation (%) ([5]; 10 nM MDZ + EC10 GABA, α4(R100H)): 26.12 ± 4.95%
Midazolam potentiation (%) ([5]; 50 nM MDZ + EC10 GABA, α4(R100H)): 54.65 ± 8.66%
Midazolam potentiation (%) ([5]; 100 nM MDZ + EC10 GABA, α4(R100H)): 87.48 ± 13.68%
Midazolam potentiation (%) ([5]; 500 nM MDZ + EC10 GABA, α4(R100H)): 117.13%
Midazolam potentiation (%) ([5]; 1000 nM MDZ + EC10 GABA, α4(R100H)): 125.77%
Max potentiation (%) ([5]; α4(R100H), Hill fit, midazolam 10-1000 nM + EC10 GABA): 113.8 ± 21.6%
Hill coefficient ([5]; α4(R100H), midazolam Hill fit): 1.187 ± 0.150
EC50 [6]: 65.4 ± 2.76 nM
Midazolam potentiation (%) ([6]; 10 nM MDZ + EC10 GABA, α5(S209I)): 15.95 ± 6.58%
Midazolam potentiation (%) ([6]; 50 nM MDZ + EC10 GABA, α5(S209I)): 62.43 ± 11.51%
Midazolam potentiation (%) ([6]; 100 nM MDZ + EC10 GABA, α5(S209I)): 127.16 ± 19.87%
Midazolam potentiation (%) ([6]; 500 nM MDZ + EC10 GABA, α5(S209I)): 168.94 ± 23.17%
Midazolam potentiation (%) ([6]; 1000 nM MDZ + EC10 GABA, α5(S209I)): 170.92 ± 25.92%
increase of maximum midazolam potentiation relative to wildtype ([6]; α5(S209I) vs α5β2γ2): approximately 63%
Max potentiation (%) ([6]; α5(S209I), Hill fit, midazolam 10-1000 nM + EC10 GABA): 175.1 ± 26.6%
Hill coefficient ([6]; α5(S209I), midazolam Hill fit): 2.232 ± 0.334
responsiveness to midazolam potentiation [7]: failed to convey any notable midazolam potentiation
Midazolam potentiation (%) ([7]; 10 nM MDZ + EC10 GABA): 11.98 ± 4.42%
Midazolam potentiation (%) ([7]; 50 nM MDZ + EC10 GABA): 19.07 ± 5.84%
Midazolam potentiation (%) ([7]; 100 nM MDZ + EC10 GABA): 25.21 ± 7.32%
Midazolam potentiation (%) ([7]; 500 nM MDZ + EC10 GABA): 25.85 ± 6.62%
Midazolam potentiation (%) ([7]; 1000 nM MDZ + EC10 GABA): 19.31 ± 7.32%
